According to patent US6825230B2, “Spiro and dispiro 1,2,4-trixolane antimalarials” (Medicines for Malaria Venture MMV, priority 2002, dated 2004):
Converted amounts (≈) assume the structure as drawn. Where two headings read alike, the source gives them in different places.

Experiments:
[1] = test system: chloroquine-resistant K1 strain of P. falciparum; test: In vitro antimalarial semiautomated microdilution assay ([3H]-hypoxanthine incorporation), K1 strain; assay type: cell-based, Plasmodium falciparum; settings: Plasmodium falciparum
How it was run: (§1)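 IC50 comes from Logit regression of [3H]-hypoxanthine incorporation data. Intraerythrocytic P. falciparum taken from asynchronous stock cultures is exposed to OZ compounds in a semiautomated microdilution format.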

[2] = test system: ANKA strain of P. berghei; test: Single dose STI in vivo screen in infected mice; design: species or system Plasmodium berghei; settings: for Survival (days) 10 mg/kg po: single 10 mg/kg po in 3% ethanol and 7% Tween 80; for Survival (days) 10 mg/kg po / Survival (days) 10 mg/kg SSV po / Survival (days) 10 mg/kg sc: untreated 6-7 days; for Activity (%) 10 mg/kg po: single 10 mg/kg po in 3% ethanol and 7% Tween 80 on day 1 post-infection; for Activity (%) 10 mg/kg po / Activity (%) 10 mg/kg SSV po / Activity (%) 10 mg/kg sc / Activity (%) 3 mg/kg SSV po: percent reduction in parasitemia on day 3; for Survival (days) 10 mg/kg SSV po: single 10 mg/kg po in SSV; for Activity (%) 10 mg/kg SSV po: single 10 mg/kg po in standard suspending vehicle (SSV) on day 1 post-infection; for Survival (days) 10 mg/kg sc: single 10 mg/kg sc in 3% ethanol and 7% Tween 80; for Activity (%) 10 mg/kg sc: single 10 mg/kg sc in 3% ethanol and 7% Tween 80 on day 1 post-infection; for Survival (days) 3 mg/kg SSV po / Activity (%) 3 mg/kg SSV po: single 3 mg/kg po in SSV
[3] = test system: chloroquine-sensitive NF54 strain of P. falciparum; test: In vitro antimalarial semiautomated microdilution assay ([3H]-hypoxanthine incorporation), NF54 strain; assay type: cell-based, Plasmodium falciparum; settings: Plasmodium falciparum
How it was run: as §1

[4] = chloroquine-resistant K1 strain, 72 h incubation, read-out: IC50 (ng/ml) K1
[5] = chloroquine-sensitive NF54 strain, 72 h incubation, read-out: IC50 (ng/ml) NF54
[6] = K1, 72 h, read-out: IC50 (ng/ml) K1, chloroquine-resistant K1 strain, 72 h incubation
[7] = NF54, 72 h, read-out: IC50 (ng/ml) NF54, chloroquine-sensitive NF54 strain, 72 h incubation

| Structure (SMILES) | IC50 [1, 4] [ng/mL] | Survival (days) 10 mg/kg po [2] [days] | Activity (%) 10 mg/kg po [2] [%] | Survival (days) 10 mg/kg SSV po [2] [days] | Activity (%) 10 mg/kg SSV po [2] [%] | Survival (days) 10 mg/kg sc [2] [days] | Activity (%) 10 mg/kg sc [2] [%] | IC50 [3, 5] [ng/mL] | IC50 [1, 6] [ng/mL] | IC50 [3, 7] [ng/mL] | Survival (days) 3 mg/kg SSV po [2] [days] | Activity (%) 3 mg/kg SSV po [2] [%] |
| --- | --- | --- | --- | --- | --- | --- | --- | --- | --- | --- | --- | --- |
| c1cc(CN2CCC3(CC2)OOC2(O3)C3CC4CC(C3)CC2C4)ccn1 (centres unmarked) [OZ216, Adamantane-2-spiro-3′-8′-(4′-pyridinylmethyl)-1′,2′,4′-trioxa-8′-azaspiro[4.5]decane] | 0.4 (≈ 1.12 nM) | 6.3 | 62 | 7.7 | 69 | 11.0 | 99.02 | 0.67 (≈ 1.88 nM) |  |  |  |  |
| O=C1c2ccccc2C(=O)N1C[C@H]1CC[C@]2(CC1)OOC1(O2)C2CC3CC(C2)CC1C3 (some centres unmarked) [OZ146] | 2.2 (≈ 5.19 nM) | 7.0 | 62 | 6.3 | 40 | 9.0 | 91 | 2.7 (≈ 6.38 nM) |  |  |  |  |
| O=C(CN1C(=O)c2ccccc2C1=O)N1CCC2(CC1)OOC1(O2)C2CC3CC(C2)CC1C3 (centres unmarked) [OZ93, Adamantane-2-spiro-3′-8′-(phthalimidoacetyl)-1′,2′,4′-trioxa-8′-azaspiro[4.5]decane] |  | 6.7 | 57 | 6.0 | 3 | 13.3 | 100 |  | 3.3 (≈ 7.29 nM) | 0.92 (≈ 2.03 nM) |  |  |
| CS(=O)(=O)c1ccc([C@H]2CC[C@]3(CC2)OOC2(O3)C3CC4CC(C3)CC2C4)cc1 (some centres unmarked) [OZ178] |  | 7.3 | 32 | 7.3 | 23 | 10.0 | 31 |  | 21 (≈ 50.2 nM) | 27 (≈ 64.5 nM) |  |  |
| NC1(C(=O)NC[C@H]2CC[C@]3(CC2)OO[C@]2(O3)C3CC4CC(C3)CC2C4)CCCC1 [OZ317] | 0.33 (≈ 0.816 nM) |  |  | 9.8 |  |  |  | 0.36 (≈ 0.89 nM) |  |  | 10.0 |  |
| C1CC1CNC1CCC2(CC1)OOC1(O2)C2CC3CC(C2)CC1C3 (centres unmarked) [OZ184] |  | 6.7 | 54 | 7.0 | 59 | 8.7 | 97 |  | 1 (≈ 3 nM) | 1.4 (≈ 4.2 nM) |  |  |
| NC(=O)N[C@H]1CC[C@]2(CC1)OOC1(O2)C2CC3CC(C2)CC1C3 (some centres unmarked) [OZ221] | > 10 | 6.3 | 80 | 7.0 | 87 | 8.0 | 97 | > 10 |  |  |  |  |
| NOC[C@H]1CC[C@]2(CC1)OO[C@]1(O2)C2CC3CC(C2)CC1C3 [OZ334] |  |  |  | 6.8 | 47 |  |  |  | 28 (≈ 90.5 nM) | 20 (≈ 64.6 nM) | 6.6 | 13 |
| C1C2CC3CC1CC(C2)C31OOC2(CCC(NC3CC3)CC2)O1 (centres unmarked) [OZ185] |  | 7.7 | 86 | 6.7 | 56 | 10.7 | 99.96 |  | 1.1 (≈ 3.44 nM) | 1.4 (≈ 4.38 nM) |  |  |
| CN(C)C[C@H]1CC[C@]2(CC1)OOC1(O2)C2CC3CC(C2)CC1C3 (some centres unmarked) [OZ232] |  | 8.0 | 76 | 7.3 | 74 | 8.7 | 99.94 |  | 0.3 (≈ 0.933 nM) | 0.5 (≈ 1.56 nM) |  |  |
| Oc1ccc([C@H]2CC[C@]3(CC2)OOC2(O3)C3CC4CC(C3)CC2C4)cc1 (some centres unmarked) [OZ288] | 1.7 (≈ 4.77 nM) |  |  | 11.0 | 99.96 |  |  | 2.7 (≈ 7.57 nM) |  |  | 8.0 | 82 |
| O=C(O)C1CCN(C(=O)C[C@H]2CC[C@]3(CC2)OO[C@]2(O3)C3CC4CC(C3)CC2C4)CC1 [OZ312] |  |  |  | 7.2 | 43 |  |  |  | 19 (≈ 43.8 nM) | 27 (≈ 62.3 nM) | 6.2 | 13 |
| COC(=O)c1ncnn1C[C@H]1CC[C@]2(CC1)OOC1(O2)C2CC3CC(C2)CC1C3 (some centres unmarked) [OZ233] |  | 7.0 | 69 | 7.7 | 76 | 8.3 | 99.66 |  | 1.7 (≈ 4.21 nM) | 1.9 (≈ 4.71 nM) |  |  |
| NC(=O)CNC(=O)C[C@H]1CC[C@]2(CC1)OO[C@]1(O2)C2CC3CC(C2)CC1C3 [OZ306] |  |  |  | 9.2 |  |  |  |  | 3.9 (≈ 10.3 nM) | 3.6 (≈ 9.51 nM) | 8.2 | 87 |
| O=C(O)C1(C(=O)O)COC2(CCC3(CC2)OOC2(O3)C3CC4CC(C3)CC2C4)OC1 (centres unmarked) [OZ122, Adamantane-2-spiro-3′-11′,11′-dicarboxy-1′,2′,4′,9′,13′-pentaoxadispiro[4.2.5.2]pentadecane] | > 100 | 5.7 | 10 | 5.3 | 3 | 5.0 | 0 | > 100 |  |  |  |  |
| O=[N+]([O-])c1cc(C2(c3ccc(Cl)c([N+](=O)[O-])c3)OOC3(O2)C2CC4CC(C2)CC3C4)ccc1Cl (centres unmarked) [OZ96, Adamantane-2-spiro-3′-5′,5′-bis(4′-chloro-3′-nitrophenyl)-1′,2′,4′-trioxolane] |  | 5.7 | 12 | 5.7 | 14 | 5.3 | 19 |  | 8.4 (≈ 16.6 nM) | > 10 |  |  |
| COCC(=O)N(C1CCCCC1)C1CCC2(CC1)OOC1(O2)C2CC3CC(C2)CC1C3 (centres unmarked) [OZ174] |  | 6.7 | 0 | 7.3 | 15 | 10.3 | 90 |  | 27 (≈ 62.3 nM) | 34 (≈ 78.4 nM) |  |  |
| C1C2CC3CC1CC(C2)C31OO[C@]2(CC[C@@H](CN(C[C@H]3CC[C@]4(CC3)OOC3(O4)C4CC5CC(C4)CC3C5)C3CC3)CC2)O1 (stereo partly drawn) [OZ254, N,N-Bis(cis-adamantane-2-spiro-3′-1′,2′,4′-trioxaspiro[4.5]decane-8′-methyl)cyclopropylamine] | > 100 | 6.0 | 27 | 5.7 | 11 | 5.7 | 2 | 57 (≈ 93.5 nM) |  |  |  |  |
